Values of other authors in patent publication US20170240913A1, “Methods and Materials for Producing Coreless Fruit” (The New Zealand Institute for Plant and Food Research …, priority 2014, published 2017).

System: frost-damaged Bramley's Seedling
Conditions: frost-damaged Bramley's Seedling (triploid, partially self-fertile)

Compound	parthenocarpy
C=C1C[C@]23C[C@@]1(O)CC[C@H]2[C@@]12C=C[C@H](O)[C@@](C)(C(=O)O1)[C@H]2[C@@H]3C(=O)O [GA3]	not effective
c1ccc(CNc2ncnc3c2ncn3C2CCCCO2)cc1 (centres unmarked) [SD8339]	no additional benefits
